Laboratory results reported in paper PMC9101642 (Molecules, 2022).
Marks after values point to notes of the source that are not given here.

Tests used:
ERα [1] = target: T1, ERα (Homo sapiens, UniProt P03372); assay: Fluorescence polarization competition assay: antagonistic potency and relative binding affinity; conditions: for Ki: calculated antagonistic (inhibitory) constant, read-out: Ka ERα; for IC50: concentration that antagonizes 50% of ERα signaling activity, read-out: ERα (IC50 nM); for logRBA ERα: log of % relative binding affinity, estradiol = 100%; for ERα potency, fold higher than Ral: ratio of IC50 values
T1 sequence (P03372 1-595): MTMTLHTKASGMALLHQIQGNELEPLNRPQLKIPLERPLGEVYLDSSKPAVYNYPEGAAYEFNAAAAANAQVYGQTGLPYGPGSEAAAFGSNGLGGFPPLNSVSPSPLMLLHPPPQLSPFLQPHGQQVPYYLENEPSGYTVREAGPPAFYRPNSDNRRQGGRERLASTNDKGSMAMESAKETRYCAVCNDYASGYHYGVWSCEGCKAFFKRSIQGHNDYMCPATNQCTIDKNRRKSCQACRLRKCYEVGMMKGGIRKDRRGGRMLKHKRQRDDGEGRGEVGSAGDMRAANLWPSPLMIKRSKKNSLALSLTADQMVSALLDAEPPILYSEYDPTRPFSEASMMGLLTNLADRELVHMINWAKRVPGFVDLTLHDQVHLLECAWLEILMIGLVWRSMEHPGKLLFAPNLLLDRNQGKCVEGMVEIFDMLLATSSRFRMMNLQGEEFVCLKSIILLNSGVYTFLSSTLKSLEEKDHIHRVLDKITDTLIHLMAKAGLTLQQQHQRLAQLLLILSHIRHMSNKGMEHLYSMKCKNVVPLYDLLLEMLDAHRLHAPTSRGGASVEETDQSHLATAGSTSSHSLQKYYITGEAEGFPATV

ERβ = ERβ (Homo sapiens, UniProt Q92731); assay: as above; conditions: for Ki: calculated antagonistic (inhibitory) constant, read-out: Ka ERβ; for IC50: concentration that antagonizes 50% of ERβ signaling activity, read-out: ERβ (IC50 nM); for logRBA ERβ: log of % relative binding affinity, estradiol = 100%
MDA-MB-231 cell lines = assay: MTT antiproliferative assay; type: cell-based, human; conditions: Homo sapiens, MDA-MB-231; growth inhibition, 48 h; read-out: MDA-MB-231 (IC50 nM)
ERα [2] = target: T1, ERα; assay: ERα down-regulation immunofluorescence assay in MCF-7; type: cell-based; conditions: ERα downregulation measured in MCF-7; read-out: MCF-7 DR (IC50 nM)
[3] = tested on: progesterone receptor (PR); assay: ERα functional antagonism cell assay (PR as biomarker) in MCF-7; type: cell-based; conditions: Homo sapiens, MCF7; progesterone receptor as biomarker for ERα antagonism in MCF-7
[4] = tested on: p53 promoter activity (p21 promoter); assay: qChIP of ERα-p53 interaction on the p21 promoter in MCF-7; type: cell-based, human
MCF-7 cells = assay: Cell cycle distribution by flow cytometry; type: cell-based, human; conditions: 24 h
[5] = Serum biochemical markers after treatment of MNU-induced rats; type: in vivo, Wistar rats; parameters: TBC: unit not given here; conditions: for ALP (A/L) / ALT (A/L) / AST (U/L) / γ-GT (U/L): serum; for TBC: total bilirubin content
How it was run: (§1)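 Mammary tumours induced in rats by MNU 50 mg/kg i.p. at day 50; after two weeks, compounds given orally at 5 or 50 mg/kg once daily for six weeks. Serum AST, ALT (340 nm), ALP (405 nm) and bilirubin measured; liver homogenate GSH, CAT, MDA by colorimetry; plasma binding by ultrafiltration at 37°C with BCA protein read-out.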

[6] = Liver oxidative stress markers after treatment of MNU-induced rats; type: in vivo, Wistar rats; conditions: liver; for CAT: catalase activity; for GSH: reduced glutathione; for SOD (U/mg): superoxide dismutase activity; for TP: total protein content
How it was run: as §1

[7] = tested on: MNU-induced breast cancer tissue; assay: Histopathology of breast sections; type: in vivo, Wistar rats
How it was run: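 Rats with MNU-induced breast cancer were given selected leads at two concentrations. Breast tissue was examined histopathologically for lobuloalveolar units and epithelial changes, with slides photographed at 200x.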

[8] = rat, in vivo
[9] = MTT antiproliferative assay (neutral control); conditions: human

Sequence of ERβ (Q92731 whole entry): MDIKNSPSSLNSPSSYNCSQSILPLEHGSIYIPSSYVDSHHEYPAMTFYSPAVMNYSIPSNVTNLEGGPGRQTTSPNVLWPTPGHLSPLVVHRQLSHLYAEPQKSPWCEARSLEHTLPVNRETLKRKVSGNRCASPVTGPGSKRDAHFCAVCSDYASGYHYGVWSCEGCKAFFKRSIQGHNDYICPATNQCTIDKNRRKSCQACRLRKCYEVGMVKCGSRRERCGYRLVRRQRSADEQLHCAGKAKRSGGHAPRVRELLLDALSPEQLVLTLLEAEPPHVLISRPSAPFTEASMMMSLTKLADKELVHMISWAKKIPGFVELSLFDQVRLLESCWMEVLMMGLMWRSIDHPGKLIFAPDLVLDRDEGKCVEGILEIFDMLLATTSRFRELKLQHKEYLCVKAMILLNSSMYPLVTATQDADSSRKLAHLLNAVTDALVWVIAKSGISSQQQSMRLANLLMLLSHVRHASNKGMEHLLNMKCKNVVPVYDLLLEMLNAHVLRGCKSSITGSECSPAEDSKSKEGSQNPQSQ

For `CNCCOc1ccc(C(=O)O[C@@H]2/C=C/C(=O)O[C@@H](O)CCC/C=C/[C@@H]3C[C@H](O)C[C@H]32)cc1C(C)=O` [Compound 3DPQ-1, (1R,2E,6R,10E,11aS,13S,14aR)-6,13-dihydroxy-4-oxo-4,6,7,8,9,11a,12,13,14,14a-decahydro-1H-cyclopenta[f][1]oxacyclotridecin-1-yl 3-acetyl-4-(2-(methylamino)ethoxy)benzoate], the Ki (ERα [1]) was 0.13 nM, the IC50 (ERα [1]) was 0.57 ± 0.54 nM and the “logRBA ERα” value (ERα [1]) was 2.19 ^‡,§. For the same molecule, the “ERα potency, fold higher than Ral” value (ERα [1]) was 1.30 fold, the Ki (ERβ) was 41.8 nM and the IC50 (ERβ) was 74.33 ± 0.46 nM. The “logRBA ERβ” value (ERβ) was 0.08 ^†,‡,§, the IC50 (MDA-MB-231 cell lines) was 72.44 ± 0.32 nM and the IC50 (ERα [2]) was greater than 100 nM. The IC50 [3] was greater than 100 nM, the “p53 promoter activity, fold higher than the one provoked by Ral” value ([4]; higher concentration (1 nM)) was 0.66 fold and the “p53 promoter activity, fold higher than the one provoked by Ral” value ([4]; lower concentration (0.1 nM)) was 0.733 fold. The “Cell Cycle (%) G0/G1” value (MCF-7 cells; 0.1 nM) was 72.62 ± 2.47 *^,†,‡,§ %, the “Cell Cycle (%) G2/M” value (MCF-7 cells; 0.1 nM) was 17.40 ± 3.63 *^,†,‡,§ % and the “Cell Cycle (%) S” value (MCF-7 cells; 0.1 nM) was 9.98 ± 1.65 *^,†,‡,§ %. For the same molecule, the “Cell Cycle (%) G0/G1” value (MCF-7 cells; 1 nM) was 75.08 ± 2.13 *^,†,‡,§ %, the “Cell Cycle (%) G2/M” value (MCF-7 cells; 1 nM) was 14.24 ± 2.54 *^,†,‡,§ % and the “Cell Cycle (%) S” value (MCF-7 cells; 1 nM) was 10.69 ± 1.42 *^,†,‡,§ %. The “ALP (A/L)” value ([5]; dose 5 mg/kg) was 104.53±0.75 A/L, the “ALT (A/L)” value ([5]; dose 5 mg/kg) was 51.63±0.32 A/L and the “AST (U/L)” value ([5]; dose 5 mg/kg) was 44.78±0.61 U/L. For the same molecule, the “γ-GT (U/L)” value ([5]; dose 5 mg/kg) was 13.54±1.74 U/L, the “ALP (A/L)” value ([5]; dose 50 mg/kg) was 107.52±0.6 A/L and the “ALT (A/L)” value ([5]; dose 50 mg/kg) was 53.43±1.34 A/L. The “AST (U/L)” value ([5]; dose 50 mg/kg) was 49.54±0.65 U/L, the “γ-GT (U/L)” value ([5]; dose 50 mg/kg) was 16.43±0.76 U/L and the TBC ([5]; dose 5 mg/kg) was 15.43±0.32. It also gave a TBC ([5]; dose 50 mg/kg) of 19.41, a CAT ([6]; dose 5 mg/kg) of 16.21±0.77 and a CAT ([6]; dose 50 mg/kg) of 17.35±0.56. For the same molecule, the “TBARS” value ([6]; dose 5 mg/kg) was 0.96 nmol/mg, the “TBARS” value ([6]; dose 50 mg/kg) was 0.65 nmol/mg and the “GSH” value ([6]; dose 50 mg/kg) was 9.35 ± 0.45 mg/g. For the same molecule, the “SOD (U/mg)” value ([6]; dose 5 mg/kg) was 7.65±0.63 U/mg, the “SOD (U/mg)” value ([6]; dose 50 mg/kg) was 8.83±0.51 U/mg and the “TP” value ([6]; dose 50 mg/kg) was 37.21 g/L. For the same molecule, the breast section histopathology ([7]; 5 mg/kg of bwt) was “lobuloalveolar unit (LaU) and cuboidal epithelial cells (CE)”, the breast section histopathology ([7]; 50 mg/kg of bwt) was “lobuloalveolar unit (LaU) and cuboidal epithelial cells (CE)” and the “WL after MFD (day 1, mg)” value [8] was 310.34 ± 0.34 ^i mg. For the same molecule, the IC50 at 48 h [9] was greater than 100 nM.

With `CC(=O)c1cc(C(=O)O[C@@H]2/C=C/C(=O)O[C@@H](O)CCC/C=C/[C@@H]3C[C@H](O)C[C@H]32)ccc1OCCN(C)C` [Compound 3DPQ-2, (1R,2E,6R,10E,11aS,13S,14aR)-6,13-dihydroxy-4-oxo-4,6,7,8,9,11a,12,13,14,14a-decahydro-1H-cyclopenta[f][1]oxacyclotridecin-1-yl 3-acetyl-4-(2-(dimethylamino)ethoxy)benzoate] the Ki (ERα [1]) was 0.12 nM, the IC50 (ERα [1]) was 0.54 ± 0.31 nM and the “logRBA ERα” value (ERα [1]) was 2.22 ^†,‡,§. The “ERα potency, fold higher than Ral” value (ERα [1]) was 1.37 fold, the Ki (ERβ) was 43.4 nM and the IC50 (ERβ) was 77.24 ± 0.42 nM. The “logRBA ERβ” value (ERβ) was 0.06 ^†,‡,§, the IC50 (MDA-MB-231 cell lines) was 72.42 ± 0.47 nM and the IC50 (ERα [2]) was greater than 100 nM. For the same molecule, the IC50 [3] was greater than 100 nM, the “p53 promoter activity, fold higher than the one provoked by Ral” value ([4]; higher concentration (1 nM)) was 0.66 fold and the “p53 promoter activity, fold higher than the one provoked by Ral” value ([4]; lower concentration (0.1 nM)) was 0.733 fold. For the same molecule, the “Cell Cycle (%) G0/G1” value (MCF-7 cells; 0.1 nM) was 73.64 ± 5.32 *^,†,‡,§ %, the “Cell Cycle (%) G2/M” value (MCF-7 cells; 0.1 nM) was 14.48 ± 2.54 *^,†,‡,§ % and the “Cell Cycle (%) S” value (MCF-7 cells; 0.1 nM) was 11.88 ± 0.87 *^,†,‡,§ %. The “Cell Cycle (%) G0/G1” value (MCF-7 cells; 1 nM) was 76.10 ± 1.43 *^,†,‡,§ %, the “Cell Cycle (%) G2/M” value (MCF-7 cells; 1 nM) was 11.32 ± 3.25 *^,†,‡,§ % and the “Cell Cycle (%) S” value (MCF-7 cells; 1 nM) was 12.59 ± 1.57 *^,†,‡,§ %. For the same molecule, the “ALP (A/L)” value ([5]; dose 5 mg/kg) was 98.53±0.14 A/L, the “ALT (A/L)” value ([5]; dose 5 mg/kg) was 46.89±0.74 A/L and the “AST (U/L)” value ([5]; dose 5 mg/kg) was 56.43±0.21 U/L. The “γ-GT (U/L)” value ([5]; dose 5 mg/kg) was 16.52±0.42 U/L, the “ALP (A/L)” value ([5]; dose 50 mg/kg) was 119.47±0.13 A/L and the “ALT (A/L)” value ([5]; dose 50 mg/kg) was 49.47±0.64 A/L. For the same molecule, the “AST (U/L)” value ([5]; dose 50 mg/kg) was 59.54±0.32 U/L, the “γ-GT (U/L)” value ([5]; dose 50 mg/kg) was 17.35±0.56 U/L and the TBC ([5]; dose 5 mg/kg) was 16.43. It also gave a TBC ([5]; dose 50 mg/kg) of 17.72, a CAT ([6]; dose 5 mg/kg) of 15.54±0.51 and a CAT ([6]; dose 50 mg/kg) of 17.31±0.63. The “TBARS” value ([6]; dose 5 mg/kg) was 0.56 nmol/mg, the “TBARS” value ([6]; dose 50 mg/kg) was 0.75 nmol/mg and the “GSH” value ([6]; dose 5 mg/kg) was 9.96 mg/g. The “GSH” value ([6]; dose 50 mg/kg) was 10.35 mg/g, the “SOD (U/mg)” value ([6]; dose 5 mg/kg) was 9.63±0.56 U/mg and the “SOD (U/mg)” value ([6]; dose 50 mg/kg) was 12.3±0.36 U/mg. For the same molecule, the “TP” value ([6]; dose 50 mg/kg) was 41.54 g/L, the breast section histopathology ([7]; 5 mg/kg of bwt) was “lobuloalveolar unit (LaU) and cuboidal epithelial cells (CE)” and the “WL after MFD (day 1, mg)” value [8] was 305.03 ± 0.66 mg. For the same molecule, the IC50 at 48 h [9] was greater than 100 nM.
